Data reported in patent US8367349B2, “Methods for identifying modulators of LRRK2” (Medical Research Council, priority 2010, dated 2013).

Experiments:
GFP-LRRK2 = target: T1, GFP-LRRK2 (Homo sapiens, UniProt Q5S007); assay: Kinase inhibitor panel: Ser910/Ser935 phosphorylation in HEK293 cells stably expressing GFP-LRRK2; format: cell-based; conditions: HEK293 GFP-LRRK2, 90 minutes, inhibitors at the higher limits of concentrations routinely employed
T1 construct: immunoprecipitates of stably expressed full length GFP-LRRK2; expressed in transfected cells
T1 sequence (Q5S007 whole entry): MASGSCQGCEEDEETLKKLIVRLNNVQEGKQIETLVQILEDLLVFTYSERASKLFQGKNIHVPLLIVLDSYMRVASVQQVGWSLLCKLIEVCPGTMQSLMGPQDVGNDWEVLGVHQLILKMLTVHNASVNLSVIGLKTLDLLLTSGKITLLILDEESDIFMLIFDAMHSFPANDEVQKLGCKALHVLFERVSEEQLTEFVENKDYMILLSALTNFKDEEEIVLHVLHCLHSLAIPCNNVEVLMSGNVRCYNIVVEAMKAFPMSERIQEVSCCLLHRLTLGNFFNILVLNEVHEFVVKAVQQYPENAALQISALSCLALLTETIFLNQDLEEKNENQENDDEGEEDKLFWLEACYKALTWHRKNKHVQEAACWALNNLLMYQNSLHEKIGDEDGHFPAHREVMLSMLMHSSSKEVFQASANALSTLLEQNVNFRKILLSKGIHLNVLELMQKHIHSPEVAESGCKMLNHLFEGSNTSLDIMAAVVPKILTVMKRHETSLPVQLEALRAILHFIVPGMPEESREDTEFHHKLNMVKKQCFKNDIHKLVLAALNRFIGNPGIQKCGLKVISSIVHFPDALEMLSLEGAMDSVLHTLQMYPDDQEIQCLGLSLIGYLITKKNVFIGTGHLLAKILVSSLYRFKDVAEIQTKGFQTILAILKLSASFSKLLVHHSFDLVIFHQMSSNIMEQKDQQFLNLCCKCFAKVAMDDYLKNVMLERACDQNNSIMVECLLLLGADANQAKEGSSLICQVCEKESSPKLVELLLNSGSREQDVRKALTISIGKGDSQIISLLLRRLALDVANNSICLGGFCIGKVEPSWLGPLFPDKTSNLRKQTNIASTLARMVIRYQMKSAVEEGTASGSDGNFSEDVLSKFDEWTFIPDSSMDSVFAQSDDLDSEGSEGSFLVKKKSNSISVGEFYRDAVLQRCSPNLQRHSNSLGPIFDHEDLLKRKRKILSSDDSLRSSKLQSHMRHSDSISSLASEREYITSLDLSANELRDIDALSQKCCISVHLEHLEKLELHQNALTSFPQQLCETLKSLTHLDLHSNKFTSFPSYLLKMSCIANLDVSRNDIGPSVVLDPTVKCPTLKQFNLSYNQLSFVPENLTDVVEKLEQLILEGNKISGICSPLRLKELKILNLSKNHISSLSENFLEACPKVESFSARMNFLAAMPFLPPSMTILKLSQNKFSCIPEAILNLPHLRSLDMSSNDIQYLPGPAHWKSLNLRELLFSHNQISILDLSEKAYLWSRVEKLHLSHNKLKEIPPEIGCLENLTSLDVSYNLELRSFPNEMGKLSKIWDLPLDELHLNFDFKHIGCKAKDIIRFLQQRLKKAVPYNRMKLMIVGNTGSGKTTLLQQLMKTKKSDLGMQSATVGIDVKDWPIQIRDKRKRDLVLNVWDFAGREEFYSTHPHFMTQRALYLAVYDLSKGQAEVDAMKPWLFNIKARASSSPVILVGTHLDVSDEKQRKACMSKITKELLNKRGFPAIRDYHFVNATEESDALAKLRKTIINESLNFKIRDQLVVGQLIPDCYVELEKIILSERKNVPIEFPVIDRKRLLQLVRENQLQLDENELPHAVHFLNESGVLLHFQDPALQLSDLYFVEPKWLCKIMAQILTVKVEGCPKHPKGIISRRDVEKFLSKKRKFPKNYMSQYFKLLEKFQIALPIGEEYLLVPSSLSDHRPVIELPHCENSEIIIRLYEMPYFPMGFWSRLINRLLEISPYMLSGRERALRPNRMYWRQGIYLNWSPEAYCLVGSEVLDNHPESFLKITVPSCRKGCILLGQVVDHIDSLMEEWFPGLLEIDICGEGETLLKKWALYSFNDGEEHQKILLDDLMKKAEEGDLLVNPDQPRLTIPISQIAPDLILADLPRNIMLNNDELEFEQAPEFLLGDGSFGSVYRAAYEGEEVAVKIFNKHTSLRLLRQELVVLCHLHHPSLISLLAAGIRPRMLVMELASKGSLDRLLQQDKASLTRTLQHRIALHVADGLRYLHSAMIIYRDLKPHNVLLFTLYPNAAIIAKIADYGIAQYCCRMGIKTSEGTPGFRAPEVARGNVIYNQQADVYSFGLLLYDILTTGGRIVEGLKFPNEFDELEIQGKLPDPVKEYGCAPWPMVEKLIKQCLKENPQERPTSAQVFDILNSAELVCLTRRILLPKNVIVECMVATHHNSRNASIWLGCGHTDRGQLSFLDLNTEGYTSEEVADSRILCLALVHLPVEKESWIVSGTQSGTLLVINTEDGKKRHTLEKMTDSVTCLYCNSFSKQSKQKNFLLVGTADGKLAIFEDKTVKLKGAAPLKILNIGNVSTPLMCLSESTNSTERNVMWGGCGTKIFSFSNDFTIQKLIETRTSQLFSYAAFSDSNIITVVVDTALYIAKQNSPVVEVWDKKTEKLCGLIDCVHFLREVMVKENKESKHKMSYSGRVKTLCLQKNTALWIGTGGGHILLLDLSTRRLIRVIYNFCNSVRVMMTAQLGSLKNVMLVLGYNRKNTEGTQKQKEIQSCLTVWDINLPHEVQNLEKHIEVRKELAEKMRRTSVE
Procedure: FIG. 16. HEK-293 stably expressing GFP-LRRK2 were treated with DMSO, or the following inhibitors dissolved in DMSO, at the indicated concentration for 90 minutes. […] Total LRRK2 was assessed by GFP immunoblot. The immunoblots shown are representative of 2 independent experiments. Cell transfections were performed by the polyethylenimine method. Where inhibitors are utilized, they were dissolved in DMSO and used at the indicated concentrations with an equivalent volume of DMSO used as a control. The final concentration of DMSO in the culture medium was never more than 0.1% (v/v). Inhibitors were added to the culture medium for the indicated times before lysis. Per 15 cm dish, HEK 293 cells were lysed with 1.0 ml and 3T3 cells were lysed with 0.6 ml of lysis buffer supplemented with the indicated detergent and clarified by centrifugation at 16,000×g at 4° C. for 10 minutes. After induction and inhibitor treatment, T-REx-GFP expressing cells were lysed at room temperature with SDS lysis buffer after washing with PBS. […] Protein concentrations were determined using the Bradford method with BSA as the standard. […] Immune complexes were washed twice with lysis buffer supplemented with 0.3 M NaCl and twice with Buffer A. Precipitates were either used as a source of kinase or immediately analyzed by immunoblot. […] DIG 14-3-3 was detected with HRP labelled anti-DIG Fab fragments (Roche).

[1] = tested on: LRRK2[A2016T] or LRRK2[A2016T+G2019S]; assay: Cytoplasmic localisation of drug resistant GFP-LRRK2[A2016T] or [A2016T+G2019S] in T-REx cells; format: cell-based, human
Procedure: (§1) FIG. 14. Disruption of 14-3-3 binding induces accumulation of LRRK2 within cytoplasmic aggregates. A.) Stable-inducible T-REx cells lines harboring the indicated forms of LRRK2 were induced for 24 hours with 0.1 μg/ml doxycycline to induce expression of GFP-LRRK2. The indicated cell lines were treated in the absence or presence of the indicated dose of H-1152 for 90 min prior to fixation. Representative fluorescent micrographs of GFP-LRRK2 localisation are shown. Cytoplasmic aggregates of GFP-LRRK2 are indicated with white arrowheads. B.) Fluorescent micrographs representative of cultures of the indicated forms GFP-LRRK2 are shown. Cytoplasmic aggregates of GFP-LRRK2 are indicated with white arrowheads. Localisation analyses were performed in duplicate, and similar results observed in two independent experiments.
(§2) Fluorescence Microscopy. HEK-293 Flp-in T-REx were purchased from Invitrogen and stable cells harbouring GFP tagged wild type and mutant forms of LRRK2 were generated using standard protocols. Cells were plated in 4-well glass bottom, CC2 coated chamber slides (Nunc). One day after plating, cells were induced with 0.1 μg/ml doxycycline and 24 hr later, cells were fixed in 4% paraformaldehyde buffered in phosphate buffered saline (purchased from USB, # 19943). […]

LRRK2[A2016T+G2019S] = target: T2, LRRK2[A2016T+G2019S] (Homo sapiens, UniProt Q5S007, A2016T/G2019S); assay: Ser910/Ser935 phosphorylation and 14-3-3 binding of drug resistant LRRK2[A2016T+G2019S] in HEK-293 cells; format: cell-based; conditions: HEK-293 over-expressing LRRK2[A2016T+G2019S], 90 minutes
T2 construct: expressed in transfected cells; host or cells: HEK-293 cells, transient transfection
T2 sequence (Q5S007 whole entry A2016T/G2019S): as the sequence (Q5S007 whole entry) above, with A2016T, G2019S counted along it
Procedure: (§3) FIG. 5. […] Cells were lysed in lysis buffer supplemented with 0.5% NP40 and […] and subjected to anti-FLAG immunoprecipitation. Immunoprecipitates were resolved on 4-12% Novex SDS-polyacrylamide gels and subjected to immunoblot with FLAG (total LRRK2), anti-pS910, anti-pS935 as well as a 14-3-3 overlay assay.
(§4) Cell transfections were performed by the polyethylenimine method. Where inhibitors are utilized, they were dissolved in DMSO and used at the indicated concentrations with an equivalent volume of DMSO used as a control. The final concentration of DMSO in the culture medium was never more than 0.1% (v/v). Inhibitors were added to the culture medium for the indicated times before lysis. Per 15 cm dish, HEK 293 cells were lysed with 1.0 ml and 3T3 cells were lysed with 0.6 ml of lysis buffer supplemented with the indicated detergent and clarified by centrifugation at 16,000×g at 4° C. for 10 minutes. After induction and inhibitor treatment, T-REx-GFP expressing cells were lysed at room temperature with SDS lysis buffer after washing with PBS. SDS lysates were boiled and sonicated to reduce viscosity. When not used immediately, all lysate supernatants were snap frozen in liquid nitrogen and stored at −80° C. until use. Protein concentrations were determined using the Bradford method with BSA as the standard.
(§5) Immunological procedures. […]

wild type FLAG-LRRK2 = target: T3, wild type FLAG-LRRK2 (Homo sapiens, UniProt Q5S007); assay: Ser910/Ser935 dephosphorylation of wild type FLAG-LRRK2 in 293 cells; format: cell-based
T3 construct: overexpressed full length human FLAG-LRRK2 expressed in HEK-293 cells; expressed in transfected cells; host or cells: HEK-293 cells, transient transfection
Procedure: as §3, §4, §5

LRRK2[Ala2016Thr] = LRRK2[Ala2016Thr] (Homo sapiens, UniProt Q5S007, A2016T); conditions: relative to normally sensitive LRRK2; cited from earlier work
Chain of LRRK2[Ala2016Thr] (Q5S007 whole entry A2016T): as the sequence (Q5S007 whole entry) above, with A2016T counted along it

LRRK2 = LRRK2 (Homo sapiens, UniProt Q5S007); conditions: wild type LRRK2, in vitro; read-out: IC50 for inhibition of LRRK2; cited from earlier work
LRRK2[G2019S] = target: T4, LRRK2[G2019S] (Homo sapiens, UniProt Q5S007, G2019S); assay: Ser910/Ser935 phosphorylation and 14-3-3 binding of Flag-LRRK2[G2019S] in HEK-293 cells; format: cell-based
T4 construct: expressed in transfected cells; host or cells: HEK-293 cells, transient transfection
T4 sequence (Q5S007 whole entry G2019S): as the sequence (Q5S007 whole entry) above, with G2019S counted along it
Procedure: as §3, §4, §5

endogenous LRRK2 [2] = target: T5, endogenous LRRK2 (Mus musculus, UniProt Q5S006); assay: Kinase activity of endogenous LRRK2 immunoprecipitated from inhibitor-treated Swiss 3T3 cells after wash-out; format: biochemical; conditions: 30 μM H1152 or 10 μM sunitinib for 2 h, inhibitor washed off, 20 μM Nictide
T5 construct: endogenous in cells; host or cells: Swiss 3T3 cells
T5 sequence (Q5S006 whole entry): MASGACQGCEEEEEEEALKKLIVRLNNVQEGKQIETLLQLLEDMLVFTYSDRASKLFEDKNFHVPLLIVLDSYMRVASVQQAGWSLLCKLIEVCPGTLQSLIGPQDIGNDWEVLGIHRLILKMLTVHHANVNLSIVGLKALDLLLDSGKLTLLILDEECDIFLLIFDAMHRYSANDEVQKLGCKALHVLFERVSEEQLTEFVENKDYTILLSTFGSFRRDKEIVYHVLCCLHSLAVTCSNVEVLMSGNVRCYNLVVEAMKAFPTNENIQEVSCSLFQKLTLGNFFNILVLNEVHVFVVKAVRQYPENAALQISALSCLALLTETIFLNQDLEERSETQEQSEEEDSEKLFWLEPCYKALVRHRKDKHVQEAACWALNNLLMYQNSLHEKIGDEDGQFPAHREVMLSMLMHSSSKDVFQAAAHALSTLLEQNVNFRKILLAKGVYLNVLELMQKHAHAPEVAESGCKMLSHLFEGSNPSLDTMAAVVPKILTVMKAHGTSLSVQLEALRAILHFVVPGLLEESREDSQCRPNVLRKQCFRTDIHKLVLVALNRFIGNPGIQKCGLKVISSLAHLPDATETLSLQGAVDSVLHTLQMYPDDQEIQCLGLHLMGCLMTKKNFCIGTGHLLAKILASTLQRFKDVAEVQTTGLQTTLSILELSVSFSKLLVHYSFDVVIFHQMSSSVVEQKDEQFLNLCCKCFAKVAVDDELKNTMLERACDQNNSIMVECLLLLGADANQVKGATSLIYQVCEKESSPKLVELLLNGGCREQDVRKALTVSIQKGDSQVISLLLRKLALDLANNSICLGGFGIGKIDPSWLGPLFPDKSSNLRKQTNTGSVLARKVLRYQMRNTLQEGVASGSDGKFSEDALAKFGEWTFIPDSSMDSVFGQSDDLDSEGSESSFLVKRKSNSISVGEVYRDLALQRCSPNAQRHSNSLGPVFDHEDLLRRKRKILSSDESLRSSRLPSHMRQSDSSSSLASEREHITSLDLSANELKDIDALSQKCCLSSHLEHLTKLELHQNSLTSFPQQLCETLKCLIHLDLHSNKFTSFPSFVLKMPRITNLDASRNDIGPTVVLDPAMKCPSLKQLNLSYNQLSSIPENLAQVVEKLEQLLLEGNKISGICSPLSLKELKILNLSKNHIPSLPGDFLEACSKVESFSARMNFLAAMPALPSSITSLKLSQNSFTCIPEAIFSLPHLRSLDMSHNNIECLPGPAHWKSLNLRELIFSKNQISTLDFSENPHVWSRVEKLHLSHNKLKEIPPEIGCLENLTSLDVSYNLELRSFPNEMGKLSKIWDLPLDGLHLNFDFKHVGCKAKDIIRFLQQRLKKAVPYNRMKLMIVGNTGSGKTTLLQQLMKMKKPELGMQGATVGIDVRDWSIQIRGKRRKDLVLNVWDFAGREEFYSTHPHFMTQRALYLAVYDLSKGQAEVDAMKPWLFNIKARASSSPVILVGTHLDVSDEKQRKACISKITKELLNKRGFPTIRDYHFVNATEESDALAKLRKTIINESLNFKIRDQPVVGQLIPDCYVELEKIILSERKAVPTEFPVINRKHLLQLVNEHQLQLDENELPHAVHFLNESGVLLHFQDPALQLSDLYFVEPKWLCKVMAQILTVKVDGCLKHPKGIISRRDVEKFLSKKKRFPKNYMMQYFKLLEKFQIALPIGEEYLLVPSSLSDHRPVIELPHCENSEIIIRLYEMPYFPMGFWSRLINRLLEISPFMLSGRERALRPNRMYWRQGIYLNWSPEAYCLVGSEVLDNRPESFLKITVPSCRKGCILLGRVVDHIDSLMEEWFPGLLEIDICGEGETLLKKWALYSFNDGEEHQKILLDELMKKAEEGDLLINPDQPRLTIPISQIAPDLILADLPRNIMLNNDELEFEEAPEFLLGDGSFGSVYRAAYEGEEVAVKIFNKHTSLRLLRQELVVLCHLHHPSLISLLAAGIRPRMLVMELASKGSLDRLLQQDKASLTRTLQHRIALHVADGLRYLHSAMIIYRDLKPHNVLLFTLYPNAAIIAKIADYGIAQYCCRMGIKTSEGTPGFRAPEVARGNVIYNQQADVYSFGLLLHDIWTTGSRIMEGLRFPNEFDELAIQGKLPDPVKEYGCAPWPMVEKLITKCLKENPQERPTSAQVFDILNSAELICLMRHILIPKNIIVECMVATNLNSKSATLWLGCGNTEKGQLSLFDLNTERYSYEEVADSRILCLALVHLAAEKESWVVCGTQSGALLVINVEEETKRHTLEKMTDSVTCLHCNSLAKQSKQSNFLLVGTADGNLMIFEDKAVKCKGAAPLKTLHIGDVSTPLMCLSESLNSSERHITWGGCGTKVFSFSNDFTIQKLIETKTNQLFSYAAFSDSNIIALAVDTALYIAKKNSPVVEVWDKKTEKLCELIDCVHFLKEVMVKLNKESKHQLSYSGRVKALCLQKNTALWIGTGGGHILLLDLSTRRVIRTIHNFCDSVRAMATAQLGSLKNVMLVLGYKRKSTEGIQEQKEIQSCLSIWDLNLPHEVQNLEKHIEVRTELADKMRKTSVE
Procedure: Immunoprecipitates were washed with lysis buffer containing 0.5 M NaCl to remove inhibitor and were then incubated in kinase buffer containing 20 μM Nictide with the presence or absence of magnesium-ATP for 30 min. Following incubation, immunoprecipitates were centrifuged at 8000 rpm for 0.5 min and the supernatant spotted on to P81 paper for measurement of LRRK2 kinase activity. Sample buffer was added to the pelleted beads and LRRK2 S910 and S935 phosphorylation was quantified following immunoblot analysis. A membrane was also subjected to autoradiography to assess LRRK2 autophosphorylation.
LRRK2 Immunoprecipitation Kinase assays. Peptide Kinase Assays were set up in a total volume of 50 μl with immunoprecipitated LRRK2 as a source of kinase, in 50 mM Tris pH 7.5, 0.1 mM EGTA, 10 mM MgCl2 and 0.1 mM [γ-^32P]ATP (˜500-1000 cpm/pmol) in the presence of 30 μM Nictide peptide substrate. Reactions were terminated by applying 30 μl of the reaction mixture on to P81 phosphocellulose paper and immersion in 50 mM phosphoric acid. After extensive washing, reaction products were quantitated by Cerenkov counting. One half of the remaining reaction was subjected to immunoblot analysis using the Odyssey LICOR system and specific activity is represented as cpm/LICOR independent density values.

endogenous LRRK2 [3] = target: T5, endogenous LRRK2; assay: Ser910/Ser935 phosphorylation and 14-3-3 binding of endogenous LRRK2 in Swiss 3T3 cells; format: cell-based; conditions: 90 minutes
Procedure: as §4
Immunological procedures. Cell lysates (10-30 μg) were resolved by electrophoresis on SDS polyacrylamide gels or Novex 4-12% gradient gels, and electroblotted to nitrocellulose membranes. Membranes were blocked with 5% skimmed milk (w/v) in 50 mM Tris/HCl, pH 7.5, 0.15 M NaCl and 0.1% (v/v) Tween (TBST Buffer). […]

[4] = tested on: GFP-LRRK2 or GFP-LRRK2[G2019S]; assay: Cytoplasmic localisation of GFP-LRRK2 or GFP-LRRK2[G2019S] in T-REx cells (fluorescence microscopy); format: cell-based, human; conditions: drug sensitive GFP-LRRK2 or GFP-LRRK2[G2019S], 90 min before fixation
Procedure: as §1, §2

| dephosphorylation of Ser910/Ser935 (GFP-LRRK2) | SMILES | accumulation of LRRK2 within cytoplasmic pools [1] | inhibition of Ser910 or Ser935 phosphorylation or 14-3-3 binding of drug resistant mutant (LRRK2[A2016T+G2019S]) | potency at inducing dephosphorylation of wild type FLAG-LRRK2 compared with endogenous LRRK2 in Swiss 3T3 cells (wild type FLAG-LRRK2) | fold less sensitive: drug resistant LRRK2[Ala2016Thr] mutant (LRRK2[Ala2016Thr]) [fold] | IC50 (LRRK2) [µM] | potency in inducing dephosphorylation and impairing 14-3-3 binding: LRRK2[G2019S] compared with wild type LRRK2 (LRRK2[G2019S]; HEK-293 cells, Flag-LRRK2 forms) | dephosphorylation of LRRK2[G2019S] at Ser910 and Ser935 and disruption of 14-3-3 binding (LRRK2[G2019S]; HEK-293 over-expressing LRRK2[G2019S], 90 minutes) | endogenous LRRK2 kinase activity after treatment of cells (endogenous LRRK2 [2]) | concentration inducing almost complete dephosphorylation of Ser910 and Ser935 and loss of 14-3-3 binding (endogenous LRRK2 [3]) [µM] | dephosphorylation of endogenous LRRK2 at Ser910 and Ser935 with concomitant reduction in 14-3-3 binding (endogenous LRRK2 [3]; increasing amounts of inhibitor) | accumulation of LRRK2 within cytoplasmic pools [4] |
| --- | --- | --- | --- | --- | --- | --- | --- | --- | --- | --- | --- | --- |
| did not induce dephosphorylation | N#CC(c1ccnc(NCCc2cccnc2)n1)c1nc2ccccc2s1 (stereo not drawn) [AS601245] | – | – | – | – | – | – | – | – | – | – | – |
| – | Cc1cncc2cccc(S(=O)(=O)N3CCCNC[C@@H]3C)c12 [H-1152] | no cytoplasmic pool accumulation | neither H-1152 nor sunitinib significantly inhibited | similar | 32 | 0.15 | more potent | dose-dependent dephosphorylation | did not affect | 10 to 30 | dose dependent dephosphorylation | marked accumulation of LRRK2 within cytoplasmic pools |
